# Entries after “also recorded” stand apart in the source; their conditions may differ. No end group written: not given here.
# What was measured:
# [1] = test system: Chronic Lymphocytic Leukemia; assay: PCD induction in primary cancer cells; format: cell-based
# [2] = test system: Glioblastoma; assay: PCD induction in primary cancer cells; format: cell-based
# [3] = test system: Bladder carcinoma; assay: PCD induction in primary cancer cells; format: cell-based
# [4] = test system: normal B-lymphocytes; assay: PCD (Annexin-V-FITC) in normal B-lymphocytes; format: cell-based, human
# Excerpt: After authorized consent forms fresh blood samples will be collected from CLL patients diagnosed according to classical morphological and immunophenotypic criteria at Pitié-Salpêtrière Hospital (Service d'Hématologie Biologique). Normal B lymphocytes will be obtained from EFS (Etablisement Français du Sang). The Institutional Ethics Committee at Pitie-Salpetriere Hospital approved the present study. Mononuclear cells were purified from blood samples using a standard Ficoll-Hypaque gradient, and B cells were positively or negatively selected by magnetic beads coupled to anti-CD19 monoclonal antibody (positive selection) or to anti-CD16, CD3, and CD14 monoclonal antibodies (negative depletion) (Miltenyi Biotech). No changes were found in the cell death response of positively or negatively selected cells. Purified B-lymphocytes were cultured in complete medium (RPMI 1640 medium supplemented with 10% fetal calf serum, 2 mM L-glutamine, and 100 U/ml penicillin-streptomycin). Unless specified, reagents were from Sigma-Aldrich. […]
# We used Annexin V-FITC (BD Biosciences) for the assessment of phosphatidylserine (PS) exposure. […] Data were analyzed using FlowJo software (TreeStar).
# [5] = test system: Diffuse large B cell lymphoma; assay: PCD induction in primary cancer cells; format: cell-based
# [6] = test system: Marginal B cell lymphoma; assay: PCD induction in primary cancer cells; format: cell-based
# [7] = test system: B cells isolated from CLL patients; assay: PCD (phosphatidylserine exposure, Annexin-V-FITC, flow cytometry) in B cells from CLL patients; format: cell-based, human
# Excerpt: After authorized consent forms fresh blood samples will be collected from CLL patients diagnosed according to classical morphological and immunophenotypic criteria at Pitié-Salpêtrière Hospital (Service d'Hématologie Biologique). Normal B lymphocytes will be obtained from EFS (Etablisement Français du Sang). The Institutional Ethics Committee at Pitie-Salpetriere Hospital approved the present study. Mononuclear cells were purified from blood samples using a standard Ficoll-Hypaque gradient, and B cells were positively or negatively selected by magnetic beads coupled to anti-CD19 monoclonal antibody (positive selection) or to anti-CD16, CD3, and CD14 monoclonal antibodies (negative depletion) (Miltenyi Biotech). No changes were found in the cell death response of positively or negatively selected cells. Purified B-lymphocytes were cultured in complete medium (RPMI 1640 medium supplemented with 10% fetal calf serum, 2 mM L-glutamine, and 100 U/ml penicillin-streptomycin). Unless specified, reagents were from Sigma-Aldrich.
# To induce cell death B-lymphocytes were cultured 1 h with the TSP-1 derived peptide 4N1K (300 μM; sequence KRFYVVMWKK, SEQ ID NO:1), the negative control peptide 4NGG (300 μM; sequence KRFYGGMWKK, SEQ ID NO:2), the newly developed peptide PKHB1 (150 μM; sequence (D)K-R-F-Y-[…]-M-W-(D)K) (formula I) or an anti-CD47 mAb (in soluble conditions or in immobilized precoated plates; 5 μg/ml; clone B6H12). Alternatively, B-cells were pre-treated for 30 min before the induction of cell death with the calcium chelator BAPTA-AM (20 μM), the caspase-inhibitor Z-VAD.fmk (50 μM).
# (§1) We used Annexin V-FITC (BD Biosciences) for the assessment of phosphatidylserine (PS) exposure. Data analysis was carried out in a FACSCanto II (BD Biosciences) on the total cell population (10,000 cells). Data were analyzed using FlowJo software (TreeStar).
# [8] = test system: Acute T cell leukemia; assay: PCD induction in primary cancer cells; format: cell-based
# [9] = test system: primary cancer cells; assay: PCD induction in primary cancer cells (whole panel of Table 2); format: cell-based; conditions: primary cancer cells (Table 2)
# [10] = test system: Prostate tumor cells; assay: PCD induction in primary cancer cells; format: cell-based
# [11] = test system: Colon carcinoma; assay: PCD induction in primary cancer cells; format: cell-based
# [12] = test system: Hairy cell leucemia (HCL); assay: PCD induction in primary cancer cells; format: cell-based
# [13] = test system: Glioma; assay: PCD induction in primary cancer cells; format: cell-based
# [14] = test system: Lymphoplasmacytic lymphoma; assay: PCD induction in primary cancer cells; format: cell-based
# [15] = test system: B cells from CLL patients; assay: Free Ca2+ mobilization, Fura-2 AM, Till photonics; format: cell-based, human; conditions: Fura-2 AM (FIG. 4)
# Description: Cells, adhered in Polylysine coated glass-bottom Petri dishes, were loaded with Fura-2 AM (1 μM/30 min/37° C.). Cells were then excited by wavelengths of 340 and 380 nm and fluorescence emission of several cells was simultaneously recorded at 510 nm at a frequency of 1 Hz using a dual excitation fluorometric imaging system (TILL-Photonics) controlled by TILL-Vision software. Signals were computed into relative ratio units of the fluorescence intensity of the different wavelengths (340/380 nm). Individual fluorescence values were then analyzed with Origin software to normalize the fluorescence with the first value according to the equation (F/F0)−1, where ‘F’ is the fluorescence at specific time point and ‘F0’ is the fluorescence at time 0.
# [16] = test system: Breast carcinoma; assay: PCD induction in primary cancer cells; format: cell-based
# [17] = test system: Ovarian carcinoma; assay: PCD induction in primary cancer cells; format: cell-based
# [18] = test system: Mantle cell lymphoma; assay: PCD induction in primary cancer cells; format: cell-based
# [19] = test system: RAJI; assay: PCD induction in cancer cell lines, Annexin V labeling; format: cell-based; conditions: RAJI (Burkitt's lymphoma), 400 μM 4N1K, 1 h
# Description: as §1
# [20] = test system: CEM; assay: as above; format: cell-based; conditions: CEM (Acute lymphoblastic leukemia), 400 μM 4N1K, 1 h
# Description: as §1
# [21] = test system: MEC-1; assay: as above; format: cell-based; conditions: MEC-1 (Chronic Lymphocytic Leukemia), 400 μM 4N1K, 1 h
# Description: as §1
# [22] = test system: RPMI 8866; assay: as above; format: cell-based; conditions: RPMI 8866 (B lymphocytic cell line), 400 μM 4N1K, 1 h
# Description: as §1
# [23] = test system: JM-1; assay: as above; format: cell-based; conditions: JM-1 (Immunoblastic B cell lymphoma), 400 μM 4N1K, 1 h
# Description: as §1
# [24] = test system: A549; assay: as above; format: cell-based; conditions: A549 (Lung carcinoma), 400 μM 4N1K, 1 h
# Description: as §1
# [25] = test system: LNCAP; assay: as above; format: cell-based; conditions: LNCAP (Prostate cancer), 400 μM 4N1K, 1 h
# Description: as §1
# [26] = test system: HELA; assay: as above; format: cell-based; conditions: HELA (Cervical cancer), 400 μM 4N1K, 1 h
# Description: as §1
# [27] = test system: RPMI 8226; assay: as above; format: cell-based; conditions: RPMI 8226 (B lymphocytic cell line), 400 μM 4N1K, 1 h
# Description: as §1
# [28] = test system: AU-565; assay: as above; format: cell-based; conditions: AU-565 (Breast adenocarcinoma), 400 μM 4N1K, 1 h
# Description: as §1
# [29] = test system: OV10; assay: as above; format: cell-based; conditions: OV10 (Ovarian Carcinoma), 400 μM 4N1K, 1 h
# Description: as §1
# [30] = test system: MCF-7; assay: as above; format: cell-based; conditions: MCF-7 (Breast adenocarcinoma), 400 μM 4N1K, 1 h
# Description: as §1
# [31] = test system: U937; assay: as above; format: cell-based; conditions: U937 (Diffuse histiocytic lymphoma), 400 μM 4N1K, 1 h
# Description: as §1
# [32] = test system: HBL-100; assay: as above; format: cell-based; conditions: HBL-100 (Breast epithelial cells with transformed morphology), 400 μM 4N1K, 1 h
# Description: as §1
# [33] = test system: JURKAT; assay: as above; format: cell-based; conditions: JURKAT (Acute T cell leukemia), 400 μM 4N1K, 1 h
# Description: as §1
# [34] = test system: MDA-MB-231; assay: as above; format: cell-based; conditions: MDA-MB-231 (Adenocarcinoma), 400 μM 4N1K, 1 h
# Description: as §1
# [35] = test system: RAMOS; assay: as above; format: cell-based; conditions: RAMOS (Burkitt's lymphoma), 400 μM 4N1K, 1 h
# Description: as §1
# [36] = test system: cancer cell lines; assay: PCD induction in cancer cell lines (whole panel of Table 1); format: cell-based; conditions: cancer cell lines (Table 1)
# Description: as §1
# [37] = test system: Hepatocellular carcinoma; assay: PCD induction in primary cancer cells; format: cell-based
# [38] = test system: Follicular lymphoma; assay: PCD induction in primary cancer cells; format: cell-based
sequence,measurement,setting,value
"KRFYVVMWKK [4N1K, K-R-F-Y-V-V-M-W-K-K]",Cell death induction via CD47,[1],+ (more than 35% of programmed cell death induction via CD47 receptor)
same,Cell death induction via CD47,[2],+ (more than 35% of programmed cell death induction via CD47 receptor)
same,Cell death induction via CD47,[3],+ (more than 35% of programmed cell death induction via CD47 receptor)
same,cytotoxicity in normal B-lymphocytes,[4],not in normal B-lymphocytes
same,Cell death induction via CD47,[5],+ (more than 35% of programmed cell death induction via CD47 receptor)
same,Cell death induction via CD47,[6],+ (more than 35% of programmed cell death induction via CD47 receptor)
same,difference in PCD response between CLL cells with functional and non-functional TP53,"[7]; 300 μM, 1 h (FIG. 2B)",Not significant difference
same,cell death in CLL cells,"[7]; 300 μM, 1 h, Annexin-V-FITC, cohort of 14 CLL patients (FIG. 6B)",about 45%
same,difference in PCD between CLL cells treated or not with caspase inhibitor ZVAD,"[7]; 300 μM, 1 h, z-VAD.fmk 50 μM pre-incubation (FIG. 2A)",Not significant difference
same,effect of pre-treatment with calcium chelator BAPTA-AM on peptide-mediated PCD,"[7]; BAPTA-AM 20 μM before PCD induction (FIG. 5, FIG. 6D)",abrogates
same,PCD induction in CLL primary cells (in words),[7]; soluble peptide or mAb (FIG. 1),induces caspase-independent PCD
same,Cell death induction via CD47,[8],+ (more than 35% of programmed cell death induction via CD47 receptor)
same,cell death induction,[9],more than 35%
same,Cell death induction via CD47,[10],+ (more than 35% of programmed cell death induction via CD47 receptor)
same,Cell death induction via CD47,[11],+ (more than 35% of programmed cell death induction via CD47 receptor)
same,Cell death induction via CD47,[12],+ (more than 35% of programmed cell death induction via CD47 receptor)
same,Cell death induction via CD47,[13],+ (more than 35% of programmed cell death induction via CD47 receptor)
same,Cell death induction via CD47,[14],+ (more than 35% of programmed cell death induction via CD47 receptor)
same,intracellular free Ca2+ mobilization,[15],does not come back to basal level; also recorded: potent and sustained increase of calcium mobilization
same,Cell death induction via CD47,[16],+ (more than 35% of programmed cell death induction via CD47 receptor)
same,Cell death induction via CD47,[17],+ (more than 35% of programmed cell death induction via CD47 receptor)
same,Cell death induction via CD47,[18],+ (more than 35% of programmed cell death induction via CD47 receptor)
same,Cell death induction via CD47,[19],"+ (more than 35% of cell death induction, assessed by Annexin V labeling, after 1 h of stimulation with 400 μM of 4N1K (means of six independent experiments))"
same,Cell death induction via CD47,[20],"+ (more than 35% of cell death induction, assessed by Annexin V labeling, after 1 h of stimulation with 400 μM of 4N1K (means of six independent experiments))"
same,Cell death induction via CD47,[21],"+ (more than 35% of cell death induction, assessed by Annexin V labeling, after 1 h of stimulation with 400 μM of 4N1K (means of six independent experiments))"
same,Cell death induction via CD47,[22],"+ (more than 35% of cell death induction, assessed by Annexin V labeling, after 1 h of stimulation with 400 μM of 4N1K (means of six independent experiments))"
same,Cell death induction via CD47,[23],"+ (more than 35% of cell death induction, assessed by Annexin V labeling, after 1 h of stimulation with 400 μM of 4N1K (means of six independent experiments))"
same,Cell death induction via CD47,[24],"+ (more than 35% of cell death induction, assessed by Annexin V labeling, after 1 h of stimulation with 400 μM of 4N1K (means of six independent experiments))"
same,Cell death induction via CD47,[25],"+ (more than 35% of cell death induction, assessed by Annexin V labeling, after 1 h of stimulation with 400 μM of 4N1K (means of six independent experiments))"
same,Cell death induction via CD47,[26],"+ (more than 35% of cell death induction, assessed by Annexin V labeling, after 1 h of stimulation with 400 μM of 4N1K (means of six independent experiments))"
same,Cell death induction via CD47,[27],"+ (more than 35% of cell death induction, assessed by Annexin V labeling, after 1 h of stimulation with 400 μM of 4N1K (means of six independent experiments))"
same,Cell death induction via CD47,[28],"+ (more than 35% of cell death induction, assessed by Annexin V labeling, after 1 h of stimulation with 400 μM of 4N1K (means of six independent experiments))"
same,Cell death induction via CD47,[29],"+ (more than 35% of cell death induction, assessed by Annexin V labeling, after 1 h of stimulation with 400 μM of 4N1K (means of six independent experiments))"
same,Cell death induction via CD47,[30],"+ (more than 35% of cell death induction, assessed by Annexin V labeling, after 1 h of stimulation with 400 μM of 4N1K (means of six independent experiments))"
same,Cell death induction via CD47,[31],"+ (more than 35% of cell death induction, assessed by Annexin V labeling, after 1 h of stimulation with 400 μM of 4N1K (means of six independent experiments))"
same,Cell death induction via CD47,[32],"+ (more than 35% of cell death induction, assessed by Annexin V labeling, after 1 h of stimulation with 400 μM of 4N1K (means of six independent experiments))"
same,Cell death induction via CD47,[33],"+ (more than 35% of cell death induction, assessed by Annexin V labeling, after 1 h of stimulation with 400 μM of 4N1K (means of six independent experiments))"
same,Cell death induction via CD47,[34],"+ (more than 35% of cell death induction, assessed by Annexin V labeling, after 1 h of stimulation with 400 μM of 4N1K (means of six independent experiments))"
same,Cell death induction via CD47,[35],"+ (more than 35% of cell death induction, assessed by Annexin V labeling, after 1 h of stimulation with 400 μM of 4N1K (means of six independent experiments))"
same,cell death induction,[36],more than 35%
same,Cell death induction via CD47,[37],+ (more than 35% of programmed cell death induction via CD47 receptor)
same,Cell death induction via CD47,[38],+ (more than 35% of programmed cell death induction via CD47 receptor)

# Reference: patent publication US10759843B2, “Method and pharmaceutical composition for use in the treatment of cancer” (priority 2012, dated 2020)
